Here are results for one compound from patent US12558345B2, “CHK1/2 inhibitors for use in the treatment of neuroblastomas and/or soft tissue sarcomas” (Eli Lilly and Company, priority 2015, dated 2026).

Experiment [1] deals with ST658 LMS patient-derived xenograft. The experiment is described as follows: Xenograft Tumor Model ST658. The experiment is classed as in vivo, mouse. The conditions noted are these: comparator day 16, p-value 0.592. How it is done: (§1) For all “ST” models (encompassing RMS and LMS), patient-derived xenografts are established from viable human tumor tissue and are serially passaged in animals a limited number of times to maintain tumor heterogeneity. In subcutaneous models, athymic nude mice (Crl:NU(NCr)-Foxn1nu) or CB-17 SCID mice (CRL-CB17/Icr-Prkdcscid/IcrIcoCrl) are injected or implanted unilaterally into the flank with tumor fragments harvested from host animals, each implanted from a specific passage lot. For all studies, measure tumor growth and body weight twice per week beginning on the seventh day after implantation. When tumor size reaches 150-300 mm^3, randomize animals and group into groups of 4-7 animals. Prepare test compound in an appropriate vehicle (e.g. vehicle can be 20% Captisol® in sterile water) and administer subcutaneously for three consecutive days followed by a four day dosing holiday and repeat for a minimum of four weeks. Tumor response is determined by tumor volume measurement performed twice per week during the course of treatment.

Experiment [2] concerns CTG-1213 RMS patient-derived xenograft. Kind of experiment: Xenograft Tumor Model CTG-1213. The experiment is classed as in vivo, mouse. The procedure: (§2) The efficacy of 5-(5-(2-(3-aminopropoxy)-6-methoxyphenyl)-1H-pyrazol-3-ylamino)pyrazine-2-carbonitrile methanesulfonic acid monohydrate is measurable in vivo in mouse models of neuroblastomas and human pediatric and adult sarcomas. 5-(5-(2-(3-Aminopropoxy)-6-methoxyphenyl)-1H-pyrazol-3-ylamino)pyrazine-2-carbonitrile methanesulfonic acid monohydrate (10 mg/kg) can be administered subcutaneously to nude mice bearing either cell-derived xenografts (CDX) or patient-derived xenografts (PDX) of human rhabdomyosarcoma, desmoplastic small round cell tumor (DSRCT), osteosarcoma, and Ewing's sarcoma using a 3 day on, 4 day off b.i.d. dosing schedule. Tumor volume and body weight can be measured two times per week. Tumor-specific parameters can be evaluated by immumohistochemistry. […]
(§3) For all “ST” models (encompassing RMS and LMS), patient-derived xenografts are established from viable human tumor tissue and are serially passaged in animals a limited number of times to maintain tumor heterogeneity. […] Tumor response is determined by tumor volume measurement performed twice per week during the course of treatment.

Experiment [3] deals with CTG-0241 OS patient-derived xenograft. Kind of experiment: Xenograft Tumor Model CTG-0241. The following applies: comparator day 28, p-value 0.019. Format: in vivo, mouse. The procedure:
as §2, §3

Experiment [4] deals with KELLY human NBM cancer cell xenograft. The experiment is described as follows: Xenograft Tumor Model KELLY. The following applies: comparator day 49, p-value <0.001. Format: in vivo, mouse. How it is done:
The following protocol can be used to measure reductions in tumor volume in response to an active pharmaceutical ingredient. Expand human NBM cancer cells SH-SY5Y (ATCC, #CRL-2226) in culture, harvest, and inject 5×10^6 cells in 200 μL of 1:1 solution of HBSS and Matrigel® subcutaneously into the right rear flank of female CD-1 nu/nu mice (20-24 g, Charles River Laboratories). Expand human NBM cancer cells KELLY (Sigma-#92110411) in culture, harvest, and inject 5×10^6 cells in 200 μL of 1:1 solution of HBSS and Matrigel® subcutaneously into the right rear flank of female CB-17 SCID mice (20-24 g, Charles River Laboratories). Expand human NBM cancer cells IMR-32 (ATCC, #CCL-127) in culture, harvest, and inject 5×10^6 cells in 200 μL of 1:1 solution of HBSS and Matrigel® subcutaneously into the right rear flank of female CB-17 SCID mice (20-24 g, Charles River Laboratories).
as §3

The subject of experiment [5] is adult sarcoma models. The experiment is described as follows: Adult sarcoma models evaluated in vivo (panel). Further details: species or system mouse.
From the text: (§4) For all “CTG” models (encompassing human RMS, DSRCT, EWS, OS and LMS patient-derived xenograft models), female NCr nude spontaneous mutant mice (5-8 weeks old, Taconic) are implanted unilaterally in the flank region with tumor fragments harvested from donor animals, each implanted from a specific passage lot.
as §1

The subject of experiment [6] is SJCRH-30 human RMS cancer cell xenograft. The experiment is described as follows: Xenograft Tumor Model SJCRH-30. The experiment is classed as in vivo, mouse. How it is done: (§5) The efficacy of 5-(5-(2-(3-aminopropoxy)-6-methoxyphenyl)-1H-pyrazol-3-ylamino)pyrazine-2-carbonitrile methanesulfonic acid monohydrate is measurable in vivo in mouse models of neuroblastomas and human pediatric and adult sarcomas. 5-(5-(2-(3-Aminopropoxy)-6-methoxyphenyl)-1H-pyrazol-3-ylamino)pyrazine-2-carbonitrile methanesulfonic acid monohydrate (10 mg/kg) can be administered subcutaneously to nude mice bearing either cell-derived xenografts (CDX) or patient-derived xenografts (PDX) of human rhabdomyosarcoma, desmoplastic small round cell tumor (DSRCT), osteosarcoma, and Ewing's sarcoma using a 3 day on, 4 day off b.i.d. dosing schedule. Tumor volume and body weight can be measured two times per week. Tumor-specific parameters can be evaluated by immumohistochemistry.
Expand human RMS cancer cells SJCRH-30 (St. Jude Children's Research Hospital) in culture, harvest, and inject 5×10^6 cells in 200 μL of HBSS subcutaneously into the right rear flank of female athymic nude mice (20-22 g, Harlan Laboratories). Expand human rhabdomyosarcoma cancer cells RD (ATCC, #CCL-136) in culture, harvest, and inject, 5×10^6 cells in 200 μL of HBSS subcutaneously into the right rear flank of female athymic nude mice (20-22 g, Harlan Laboratories).
as §1

Experiment [7] concerns SJCRH-30 RMS xenograft. The experiment is classed as in vivo. The conditions noted are these: for % T/C: SJCRH-30, RMS.
Procedure: The vehicle used in this study is 20% Captisol® in sterile water and is administered subcutaneously for three consecutive days followed by a four day dosing holiday and repeated for a minimum of four weeks. […] The treatment period lasts 4 weeks.
Experiment [8] deals with ST240 LMS patient-derived xenograft. Kind of experiment: Xenograft Tumor Model ST240. The experiment is classed as in vivo, mouse. The conditions noted are these: comparator day 29, p-value 0.022. The procedure: as §1
Experiment [9] relates to pediatric sarcoma in vivo mouse models. The experiment is described as follows: Pediatric tumor / pediatric sarcoma in vivo mouse models (panel). The procedure: as §5, §4
For all “ST” models (encompassing RMS and LMS), patient-derived xenografts are established from viable human tumor tissue and are serially passaged in animals a limited number of times to maintain tumor heterogeneity. In subcutaneous models, athymic nude mice (Crl:NU(NCr)-Foxn1nu) or CB-17 SCID mice (CRL-CB17/Icr-Prkdcscid/IcrIcoCrl) are injected or implanted unilaterally into the flank with tumor fragments harvested from host animals, each implanted from a specific passage lot. For all studies, measure tumor growth and body weight twice per week beginning on the seventh day after implantation. When tumor size reaches 150-300 mm^3, randomize animals and group into groups of 4-7 animals. […] Tumor response is determined by tumor volume measurement performed twice per week during the course of treatment.

Experiment [10] relates to CTG-0242 OS patient-derived xenograft. Kind of experiment: Xenograft Tumor Model CTG-0242. The conditions noted are these: comparator day 28, p-value 0.012. The experiment is classed as in vivo, mouse. How it is done:
as §2, §3

The subject of experiment [11] is Liposarcoma xenograft models. The experiment is described as follows: Sarcoma xenograft models by tumor subtype: Liposarcoma. Format: in vivo, mouse. The conditions noted are these: age of patients 36-74 years.
Experiment [12] deals with Osteosarcoma xenograft models. The experiment is described as follows: Sarcoma xenograft models by tumor subtype: Osteosarcoma. The experiment is classed as in vivo, mouse. The following applies: age of patients 11-19 years. How it is done: as §2, §3
Where [13] appears, read: results ranging from stable disease to complete response.

Read-outs that look alike come from different tables or passages of the source.

As for `COc1cccc(OCCCN)c1-c1cc(Nc2cnc(C#N)cn2)n[nH]1` [Example 5, 5-(5-(2-(3-Aminopropoxy)-6-methoxyphenyl)-1H-pyrazol-3-ylamino)pyrazine-2-carbonitrile methanesulfonic acid monohydrate], the “% T/C” value is given as 137% in experiment [1]; 18% in experiment [2] (comparator day 18, p-value 0.004); 48% in [3]; 0.1% in experiment [7] (comparator day 46); 58% in experiment [7] (comparator day 56); 67% in experiment [8]. Moreover, the “% T/C” value in experiment [10] is on record as 6%. For the same compound, the “% Regression” value in experiment [2] (comparator day 36, p-value <0.001) was −65%; in experiment [4] it was −88%; in [6] (SJCRH-30, RMS, comparator day 38, p-value <0.001) it was −78%. Besides, the “adult sarcoma models sensitive to single agent treatment (models)” value in [5] is reported as 10/12. In addition, in [5], the “adult sarcoma models sensitive to single agent treatment (percent)” value is 83%. Further, in experiment [6] (SJCRH-30 aRMS model), the “course of the regression upon withdrawal of the drug” value is “immediately reversed”. Besides, the “tumor response during treatment” value in experiment [6] (SJCRH-30 aRMS model) is listed as “complete regression”. For the same compound, in experiment [6] (SJCRH-30 aRMS model, 10 mg/kg), the “response of subsequent regrowth to further treatment” value was “resistant to further treatment”. In [7] (SJCRH-30, SC three days on, four day holiday, 4 weeks, tumor regrowth occurs from day 38), the “tumor response as a single agent” value is listed as “initial complete response until day 38”. Moreover, the “effect on acquired resistance in SJCRH30 xenografts” value in experiment [7] (combination with doxorubicin, ifosfamide, or irinotecan) is recorded as “appears to circumvent the acquired resistance”. Moreover, in experiment [9] (ranging from stable disease to complete regression, 10 mg/kg SC, 3 day on, 4 day off b.i.d.), the “pediatric tumor models with strong single agent activity” value was 7/13. Besides, the “pediatric sarcoma in vivo mouse models in which effective as a single agent (models)” value in [9] (setting [13]) is listed as 7/17. Further, the “pediatric sarcoma in vivo mouse models in which effective as a single agent (percent)” value in experiment [9] (setting [13]) was approximately 41%. Besides, the “Result of Treatment: Progressive Disease (models)” value in experiment [11] is recorded as 7/7 Progressive. In experiment [12], the “Result of Treatment: Stable Disease (models)” value is listed as 1/4 Stable Disease.
